Tests used:
Plasmodium falciparum [1] = experiment: NOVARTIS: Inhibition of Plasmodium falciparum 3D7 (drug-susceptible) proliferation in erythrocyte-based infection assay; type: functional, organism-based; settings: Plasmodium falciparum, 3D7
Plasmodium falciparum [2] = experiment: NOVARTIS: Inhibition of Plasmodium falciparum W2 (drug-resistant) proliferation in erythrocyte-based infection assay; type: functional, organism-based; settings: Plasmodium falciparum, W2; read-out: EC50
[3] = NOVARTIS: Cytotoxicity against human hepatocellular carcinoma cell line (Huh7); type: toxicity, cell-based, Huh-7; settings: Huh7 cells (hepatocellular carcinoma cell line)

Compound	EC50 (Plasmodium falciparum [1]) [nM]	EC50 (Plasmodium falciparum [2]) [nM]	CC50 [3] [nM]
N#CC(=Cc1ccccc1OCc1ccc(Cl)cc1Cl)c1nc2ccccc2[nH]1	1130	717	5050
CCCOc1ccc(C2Sc3ccccc3N=C3C2=C(O)c2ccccc23)cc1OC (centres undefined)	483	178	> 100000
COc1ccc(N2C(=O)/C(=C3/C(=O)Nc4ccc(F)cc43)SC2=S)c(OC)c1	> 926	947	> 10000
CCOc1cccc(Nc2c3c(nc4ncnn24)CCC3)c1	597	374	> 100000
Cc1cccc(-c2cc(C(=O)NC3CCN(Cc4ccccc4)CC3)cc(-n3cnnn3)c2)c1	372	570	50100
COc1cccc(-c2ccc(O)c(CNC(C)c3cccc4ccccc34)c2)n1 (centres undefined)	285	48.4	61200
COCCOC(=O)C1=C(C)NC2=C(C(=O)CC(c3ccc(OC)c(OC)c3)C2)C1c1ccccc1F (centres undefined)	82	11.8	> 100000
CC(C)CN1C(=O)c2ccccc2C(C(=O)Nc2cc(F)ccc2F)C1c1cccs1 (centres undefined)	260	150	> 100000
c1cc(C2=NCCN2)ccc1OCCCOc1ccc(C2=NCCN2)cc1	5.58	51.8	> 10000
CCOCCCNC(=O)C1CCCN(S(=O)(=O)c2ccc(C)cc2)C1 (centres undefined)	> 659	> 730	> 10000
CCSc1nc2sc3c(c2c(=O)n1CC)CCN(C)C3	1410	923	> 100000
O=C(NCCc1ccccc1)c1cnc(NCCCN2CCCC2)nc1Nc1ccccc1	541	> 1250	> 10000
Cc1csc(NC(=O)C2c3ccccc3C(=O)N(CC(C)C)C2c2cccs2)n1 (centres undefined)	611	785	> 10000
COc1ccc(N=Nc2nc3ccc(Br)cc3n2C)cc1	197	199	> 100000
Cc1cc(-c2cn[nH]c2C2CCCN(C(=O)Cc3ccccc3F)C2)on1 (centres undefined)	> 1250	> 969	> 10000
Cc1ccc(C=Cc2ccc3ccccc3[n+]2C)cc1	59.4	1480	16300
Cc1cc(Nc2ccc(OCc3ccccc3)cc2)nc2cc(O)ccc12	73.6	11.9	17200

Compound	EC50 (Plasmodium falciparum [1]) [nM]	EC50 (Plasmodium falciparum [2]) [nM]	CC50 [3] [nM]
O=C(Nc1cccc(Cl)c1)Nc1cc(C(F)(F)F)cc(C(F)(F)F)c1	3220	> 9990	19500
COc1cccc(CNC(=O)Cn2ncc3c(=O)oc4ccc(C)cc4c32)c1	> 1730	1760	> 10000
Cc1nc2cc(-c3ccc(F)cc3)nn2c(NCCCn2ccnc2)c1C	990	776	> 10000
CCCOC(=O)C1=C(C)NC2=C(C(=O)CC(c3ccc(Cl)cc3)C2)C1c1ccccc1F (centres undefined)	254	18.6	> 100000
COc1ccc(NC(=O)CCCCCn2c(SCC(=O)c3ccccc3)nc3ccsc3c2=O)cc1	3120	3760	> 100000
CCN(c1ccc(F)cc1)S(=O)(=O)c1ccc2[nH]cc(C(=O)NCCC(C)C)c(=O)c2c1	> 1250	> 1150	> 10000
CCCCNC1=CC(=O)C(=O)c2ccccc21	481	324	> 77800
Cc1ccc(N=C2NC(=O)/C(=C/c3cc(C)n(-c4cccc([N+](=O)[O-])c4)c3C)S2)cc1	353	985	> 100000
N#Cc1ccc(N2CCN(C(=O)c3ccc(F)cc3Cl)CC2)cc1	155	67.5	> 10000
O=C(NCc1ccccc1)C(c1ccc(F)cc1)N(Cc1ccco1)C(=O)c1cnccn1 (centres undefined)	> 8940	2520	> 100000
COc1ccc(-n2nc(C(=O)NCC(=O)Nc3ccc(F)cc3)c3ccccc3c2=O)cc1Cl	> 1140	> 1250	> 10000
CCC1CCCCN1S(=O)(=O)c1cc(Br)cc2c1N(C(=O)C1CC1)CC2 (centres undefined)	2840	448	> 100000
c1ccc(CN2CCC(NCc3c[nH]c4ccccc34)CC2)cc1	208	120	> 10000
C=CCSc1nn2c(=O)c(C)nnc2s1	> 1620	1080	> 10000
NC(=O)c1ccc2c(c1)N=C(c1cccnc1)N(C1CC1)C2	1300	648	> 10000
CCn1c(=NC(=O)c2cc(=O)c3ccccc3o2)sc2c(OC)ccc(OC)c21	1500	55.6	> 10000
